Source: US11427596B2, “Metal-free solvent-free synthesis of fused-pyrido heterocycles and biomedical applications” (Indian Institute of Technology Indore, priority 2019, dated 2022)

System: Mycobacterium bovis
Type: cell-based
Details: virulent/opportunistic multidrug resistant Mycobacterium bovis (BCG), incubation 48 hrs, n=3

Cc1ccc(-c2nc(COCc3cn(CCN4C(=O)C(=O)c5ccccc54)nn3)cc3oc(C)cc23)o1 [compound 26, 1-(2-(4-(((2-Methyl-4-(5-methylfuran-2-yl)furo[3,2-c]pyridin-6-yl)methoxy)methyl)-1H-1,2,3-triazol-1-yl)ethyl)indoline-2,3-dione]
concentration range in which active (antituberculosis activity): 70 to 100 µM
